# Values joined by “and” are separate entries in the source; they are usually repeats but may differ in a detail not shown here. Equal values may be shown once. Active and inactive are the calls of the source.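 Rule for the calls: active = compounds giving half or more protection of infected cells from virus-caused growth loss, again on retest; inactive = the rest.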 Where a SMILES comes first, the peptide text is derived from it.
# Test system: CEM cells HIV-1 protection, formazan growth assay
# Experiment: NCI AIDS Antiviral Assay
# Conditions: for IC50: measured here: growth of uninfected CEM cells
# In short: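 CEM (human) cells, HIV-1 infected vs uninfected, 5-point dosing, formazan growth read-out. Retest threshold 50% protection.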
Structure (SMILES),EC50,IC50,outcome
N=C(N)SCc1cccc2c(=O)cc(-c3ccccc3)oc12,> 646 µM,5.62 µM,
Cc1ccc(S(=O)(=O)OC2C3CCC4C(COC42)C3)cc1 (stereo not drawn),79.4 µM and 77.6 µM,> 200 µM,
CC(=O)CC(=O)Nc1ccccc1[N+](=O)[O-],,,inactive
O=C1NC(=O)C(=Cc2cccc(Br)c2)C(=O)N1,> 123 µM,> 123 µM,
CC(c1ccccc1)N1C(=O)CSC1=S (stereo not drawn),,,inactive
CC(=O)OCC1OC(n2c(-c3ccc(C)cc3)cc(-c3ccccc3)c(C#N)c2=O)C(OC(C)=O)C(OC(C)=O)C1OC(C)=O (stereo not drawn),> 11.7 µM,> 11.7 µM,
CNC(=O)NCCc1c[nH]c2ccccc12,> 200 µM,> 200 µM,
COc1ccccc1C1C(C#N)C(=O)NC(=O)C1C#N (stereo not drawn),> 200 µM,> 200 µM,
Cc1nc2ccc(NC3OC(CO)C(O)C(O)C3O)cc2c(=O)n1-c1ccccc1 (stereo not drawn),> 200 µM,> 200 µM,
[Ni+2].[O-]/C(=N\N=C/c1cccc(C(F)(F)F)c1)c1ccncc1.[O-]/C(=N\N=C\c1cccc(C(F)(F)F)c1)c1ccncc1,> 100 µM,15.8 µM,
O=C(CC(O)(C(F)(F)F)C(F)(F)F)c1cccc(Cl)c1,> 200 µM,182 µM,
O=c1oc2ccccc2c(O)c1-c1cccc2ccccc12,,,inactive
Cc1ccc2c(c1)[nH]c(=S)n2/C=C1\C(=O)Oc2ccccc2C1=O,> 200 µM,36.3 µM,
CC(=O)/C(C=Nc1c(C)n(C)n(C)c1=O)=C(/O)c1ccccc1,> 200 µM,89.1 µM,
O=C(Nc1ccccc1)Nc1ccc([N+](=O)[O-])cn1,> 200 µM,> 200 µM,
Cc1nc(-c2cc3cc([N+](=O)[O-])ccc3oc2=O)cs1,> 200 µM,74.1 µM,
COC(=O)Nc1nc2ccccc2c(=O)[nH]1,> 200 µM,> 200 µM,

Structure (SMILES),EC50,IC50,outcome
CCOC(=O)/C(=C/c1ccccc1)N(CC)CC,> 55 µM,> 55 µM,
COc1nc(N)c(NC2OC(CO)C(O)C(O)C2O)c(=O)n1C (stereo not drawn),,,inactive
COc1ccc(C(C#N)NCCCCCCNC(C#N)c2ccc(OC)cc2)cc1 (stereo not drawn),> 200 µM,> 200 µM,
CC1=NN(c2ccccc2)C(=O)C12[C@H](c1ccccc1)C2(C#N)C#N (stereo partly drawn),> 21.9 µM,3.39 µM,
N#Cc1c(C[n+]2ccccc2)c2ccccc2oc1=O,617 µM,646 µM,
CNC(=S)N/N=C(\C)c1cc(OC)ccc1O,> 200 µM,14.5 µM,
N#Cc1c(-c2ccccc2)c(C#N)c(=S)n(C2OC(CO)C(O)C(O)C2O)c1N (stereo not drawn),> 200 µM,83.2 µM and 64.6 µM,
CCOC(=O)C(C(=O)OCC)=c1sc(=C(C(=O)OCC)C(=O)OCC)s1,,,inactive
Cc1ccc(-c2nc(-c3cnccn3)n(C3OC(CO)C(O)C(O)C3O)n2)cc1 (stereo not drawn),> 200 µM,> 200 µM,
NNC(=O)/C(=C/c1ccc(Cl)c(Cl)c1)NC(=O)c1ccccc1,> 141 µM,> 141 µM,
CC(=O)O[C@]1(C(C)=O)CC[C@H]2[C@@H]3C=C(Cl)C4=CC(=O)CC[C@]4(C)[C@H]3CC[C@@]21C,> 200 µM,> 200 µM,
CC(NC(=O)CNC(=O)C(N)CO)C(=O)NC(CCC(=O)O)C(=O)NC(CCCCN)C(=O)N1CCCC1C(=O)NC(CCC(=O)O)C(=O)NC(CCCCN)C(=O)NC(CCC(=O)O)C(=O)NC(CCCN=C(N)N)C(=O)NC(CO)C(=O)NC(Cc1ccc(O)cc1)C(=O)NC(C)C(=O)NC(Cc1cnc[nH]1)C(=O)NC(CO)C(=O)O (stereo not drawn) (H-SGAEKPEKERSYAHS-OH; configuration not given here),> 100 µM,> 100 µM,
CCCCCC1=CC2C(=O)NC(=O)NC12 (stereo not drawn),> 47.9 µM,> 47.9 µM,
N#Cc1c(-c2ccc(NCc3nc4ccccc4[nH]3)cc2)cc(-c2ccco2)[nH]c1=O,> 200 µM,27.5 µM,
O=C(Nc1ccccn1)/C(=C\C(=O)c1ccc(Cl)cc1)Nc1ccccc1,> 200 µM,174 µM,
CC(C)(Cc1ccccc1)Cc1cc(O)ccc1O,1.29 µM,7.24 µM,
COc1ccc(CC(=O)c2ccc(O)cc2O)cc1,> 200 µM,81.3 µM,

# Reference: PubChem BioAssay AID179 (DTP/NCI, 2004)
